Source: ChEMBL document CHEMBL3217577, “Recent applications of multicomponent reactions in medicinal chemistry” (Medchemcomm, 2012)
Converted amounts (≈) assume the structure as drawn.

Tests used:
[1] = molecular target: Glycogen synthase kinase-3 beta (Mus musculus, UniProt Q9WV60); assay: Inhibition of recombinant mouse GSK3beta expressed in COS-1 cells by luciferase reporter gene assay; type: cell-based
[2] = test system: Plasmodium falciparum; assay: Antiparasitic activity against chloroquine-resistant Plasmodium falciparum assessed as inhibition of parasite survival; type: functional, organism-based
[3] = test system: HeLa; assay: Antiproliferative activity against human HeLa cells; type: functional
[4] = test system: Plasmodium falciparum; assay: Ratio of chloroquine IC50 to compound IC50 for chloroquine-resistant Plasmodium falciparum; type: functional
[5] = test system: Plasmodium falciparum; assay: Antiparasitic activity against chloroquine-resistant Plasmodium falciparum; type: functional, organism-based
[6] = molecular target: Mitogen-activated protein kinase 14 (Homo sapiens, UniProt Q16539); assay: Inhibition of p38 alpha MAP kinase (unknown origin)
[7] = molecular target: T1, Aurora kinase A (Homo sapiens, UniProt O14965); assay: Inhibition of Aurora A kinase (unknown origin)
T1 sequence (O14965 whole entry): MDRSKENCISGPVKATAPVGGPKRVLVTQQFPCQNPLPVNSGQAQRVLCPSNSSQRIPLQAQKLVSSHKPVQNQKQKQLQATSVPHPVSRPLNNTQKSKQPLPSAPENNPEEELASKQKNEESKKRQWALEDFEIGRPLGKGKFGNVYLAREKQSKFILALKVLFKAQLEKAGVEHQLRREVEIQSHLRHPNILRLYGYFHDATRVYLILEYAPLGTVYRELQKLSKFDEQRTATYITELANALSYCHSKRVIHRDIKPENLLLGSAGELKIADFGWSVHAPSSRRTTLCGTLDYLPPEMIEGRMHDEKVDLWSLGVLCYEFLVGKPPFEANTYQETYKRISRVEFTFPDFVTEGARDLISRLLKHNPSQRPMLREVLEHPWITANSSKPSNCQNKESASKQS

[8] = molecular target: T2, M-phase inducer phosphatase 2 (Homo sapiens, UniProt P30305); assay: Inhibition of CDC25B (unknown origin)
T2 sequence (P30305 whole entry): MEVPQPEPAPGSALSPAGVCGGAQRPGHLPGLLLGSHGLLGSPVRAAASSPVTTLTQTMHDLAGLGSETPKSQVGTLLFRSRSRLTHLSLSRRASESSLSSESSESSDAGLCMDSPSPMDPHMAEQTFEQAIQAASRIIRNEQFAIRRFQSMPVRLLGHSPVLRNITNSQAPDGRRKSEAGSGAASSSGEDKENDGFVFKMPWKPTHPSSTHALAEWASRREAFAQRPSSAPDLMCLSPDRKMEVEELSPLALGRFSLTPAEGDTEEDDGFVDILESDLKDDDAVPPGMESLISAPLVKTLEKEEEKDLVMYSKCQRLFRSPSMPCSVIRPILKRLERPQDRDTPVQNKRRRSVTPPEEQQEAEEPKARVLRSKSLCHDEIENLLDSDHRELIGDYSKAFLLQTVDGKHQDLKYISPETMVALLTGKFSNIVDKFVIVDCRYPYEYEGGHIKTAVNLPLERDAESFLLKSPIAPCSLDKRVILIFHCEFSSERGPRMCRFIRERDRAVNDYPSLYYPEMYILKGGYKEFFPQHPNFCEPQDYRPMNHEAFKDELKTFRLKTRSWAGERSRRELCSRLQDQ

[9] = molecular target: T3, Tyrosine-protein phosphatase non-receptor type 1 (Homo sapiens, UniProt P18031); assay: Inhibition of PTP1B (unknown origin)
T3 sequence (P18031 whole entry): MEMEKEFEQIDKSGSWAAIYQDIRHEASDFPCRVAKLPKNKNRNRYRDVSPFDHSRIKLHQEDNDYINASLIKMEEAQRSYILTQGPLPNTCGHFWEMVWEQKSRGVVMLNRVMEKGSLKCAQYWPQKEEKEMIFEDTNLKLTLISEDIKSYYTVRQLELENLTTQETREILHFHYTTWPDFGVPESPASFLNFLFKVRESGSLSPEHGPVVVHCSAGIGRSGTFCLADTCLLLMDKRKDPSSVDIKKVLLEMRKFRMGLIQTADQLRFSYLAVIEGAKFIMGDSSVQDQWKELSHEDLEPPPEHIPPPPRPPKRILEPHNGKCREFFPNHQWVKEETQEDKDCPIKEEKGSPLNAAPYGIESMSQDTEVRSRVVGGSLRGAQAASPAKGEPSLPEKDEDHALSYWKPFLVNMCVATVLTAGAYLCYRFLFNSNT

[10] = molecular target: T4, Tyrosine-protein phosphatase non-receptor type 2 (Homo sapiens, UniProt P17706); assay: Inhibition of TC-PTP (unknown origin)
T4 sequence (P17706 whole entry): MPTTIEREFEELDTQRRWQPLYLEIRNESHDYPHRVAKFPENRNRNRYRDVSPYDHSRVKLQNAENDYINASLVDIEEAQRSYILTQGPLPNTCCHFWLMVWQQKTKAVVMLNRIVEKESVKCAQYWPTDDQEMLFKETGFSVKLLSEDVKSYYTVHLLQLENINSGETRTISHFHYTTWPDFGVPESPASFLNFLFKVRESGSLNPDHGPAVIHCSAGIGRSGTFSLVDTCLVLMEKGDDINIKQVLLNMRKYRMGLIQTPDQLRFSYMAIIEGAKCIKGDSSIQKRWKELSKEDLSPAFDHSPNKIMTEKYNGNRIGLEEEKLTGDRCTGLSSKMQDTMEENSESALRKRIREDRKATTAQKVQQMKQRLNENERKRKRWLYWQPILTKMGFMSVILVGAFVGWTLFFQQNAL

[11] = Inhibition of Mycobacterium tuberculosis protein tyrosine phosphatase B
[12] = molecular target: T5, Tumour suppressor p53/oncoprotein Mdm2 (Homo sapiens, UniProt Q00987); assay: Competitive inhibition of recombinant human Mdm2 (aa 1 to 118)-p53 ( 1 to 321) interaction; type: protein assay
[13] = molecular target: T6, E3 ubiquitin-protein ligase Mdm2 (Homo sapiens, UniProt Q00987); assay: Binding affinity to HDM2 ( unknown origin) by NMR analysis
[14] = molecular target: T6, E3 ubiquitin-protein ligase Mdm2; assay: Inhibition of Mdm2 in p53-deficient human PA-1 cells; type: cell-based
[15] = molecular target: T5, Tumour suppressor p53/oncoprotein Mdm2; assay: Inhibition of Mdm2-p53 interaction in human PA-1 cells; type: cell-based
[16] = test system: MCF7; assay: Antiproliferative activity against human MCF7 cells; type: functional, cell-based
[17] = test system: Trypanosoma cruzi; assay: Antiparasitic activity against epimastigote stage of Trypanosoma cruzi assessed as growth inhibition at 50 uM; type: functional
[18] = molecular target: T7, Prolyl endopeptidase (Homo sapiens, UniProt P48147); assay: Inhibition of purified prolyl oligopeptidase (unknown origin) after 1 hr by spectrophotometry
T7 sequence (P48147 whole entry): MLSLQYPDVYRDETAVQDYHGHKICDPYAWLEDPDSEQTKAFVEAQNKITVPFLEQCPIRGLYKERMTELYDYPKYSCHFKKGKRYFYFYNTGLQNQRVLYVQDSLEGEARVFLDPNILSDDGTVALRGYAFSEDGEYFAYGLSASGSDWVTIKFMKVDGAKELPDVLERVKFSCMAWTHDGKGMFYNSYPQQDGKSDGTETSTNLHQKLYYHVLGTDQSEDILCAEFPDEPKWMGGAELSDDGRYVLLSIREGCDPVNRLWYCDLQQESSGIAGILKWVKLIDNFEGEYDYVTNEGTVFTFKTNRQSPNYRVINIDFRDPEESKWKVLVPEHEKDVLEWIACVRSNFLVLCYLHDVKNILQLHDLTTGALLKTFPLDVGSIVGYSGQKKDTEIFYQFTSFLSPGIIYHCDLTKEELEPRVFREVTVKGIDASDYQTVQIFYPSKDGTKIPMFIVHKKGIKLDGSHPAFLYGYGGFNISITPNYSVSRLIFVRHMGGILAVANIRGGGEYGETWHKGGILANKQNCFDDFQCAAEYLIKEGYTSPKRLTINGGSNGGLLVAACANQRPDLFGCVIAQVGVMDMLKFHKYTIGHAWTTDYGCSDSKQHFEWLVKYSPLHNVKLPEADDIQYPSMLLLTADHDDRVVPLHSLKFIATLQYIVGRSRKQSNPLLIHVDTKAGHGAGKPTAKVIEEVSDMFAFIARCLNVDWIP

[19] = test system: Mycobacterium tuberculosis; assay: Antibacterial activity against Mycobacterium tuberculosis H37Ra; type: functional
[20] = test system: HT-29; assay: Cytotoxicity against human HT-29 cells; type: functional
[21] = test system: PC-3; assay: Cytotoxicity against human PC3 cells; type: functional

T6 sequence (Q00987 whole entry): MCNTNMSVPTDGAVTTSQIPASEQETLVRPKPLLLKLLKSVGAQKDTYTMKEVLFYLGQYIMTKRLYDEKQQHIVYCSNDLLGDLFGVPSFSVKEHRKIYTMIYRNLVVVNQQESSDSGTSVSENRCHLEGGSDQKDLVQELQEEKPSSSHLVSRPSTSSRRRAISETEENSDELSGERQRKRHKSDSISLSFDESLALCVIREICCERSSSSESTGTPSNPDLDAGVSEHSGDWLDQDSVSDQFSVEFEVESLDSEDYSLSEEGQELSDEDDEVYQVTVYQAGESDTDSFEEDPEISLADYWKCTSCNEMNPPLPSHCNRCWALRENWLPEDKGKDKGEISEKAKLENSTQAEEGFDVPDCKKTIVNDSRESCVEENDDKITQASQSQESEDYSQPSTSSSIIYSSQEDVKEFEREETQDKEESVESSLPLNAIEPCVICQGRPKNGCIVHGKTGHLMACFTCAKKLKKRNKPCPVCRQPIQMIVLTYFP
T5 sequence (P04637 whole entry, the tested form may be a part): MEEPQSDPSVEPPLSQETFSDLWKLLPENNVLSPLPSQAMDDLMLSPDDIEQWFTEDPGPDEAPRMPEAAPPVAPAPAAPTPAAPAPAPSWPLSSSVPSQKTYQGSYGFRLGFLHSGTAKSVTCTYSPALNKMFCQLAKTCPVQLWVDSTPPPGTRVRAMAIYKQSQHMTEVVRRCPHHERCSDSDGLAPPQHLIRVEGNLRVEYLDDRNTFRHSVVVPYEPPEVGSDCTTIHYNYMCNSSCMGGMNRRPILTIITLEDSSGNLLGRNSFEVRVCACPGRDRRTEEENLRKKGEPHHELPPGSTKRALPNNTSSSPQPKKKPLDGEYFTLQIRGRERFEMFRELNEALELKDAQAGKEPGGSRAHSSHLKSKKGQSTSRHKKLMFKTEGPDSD
T5 sequence (Q00987 whole entry, the tested form may be a part): as the sequence (Q00987 whole entry) above
Mitogen-activated protein kinase 14, sequence (Q16539 whole entry): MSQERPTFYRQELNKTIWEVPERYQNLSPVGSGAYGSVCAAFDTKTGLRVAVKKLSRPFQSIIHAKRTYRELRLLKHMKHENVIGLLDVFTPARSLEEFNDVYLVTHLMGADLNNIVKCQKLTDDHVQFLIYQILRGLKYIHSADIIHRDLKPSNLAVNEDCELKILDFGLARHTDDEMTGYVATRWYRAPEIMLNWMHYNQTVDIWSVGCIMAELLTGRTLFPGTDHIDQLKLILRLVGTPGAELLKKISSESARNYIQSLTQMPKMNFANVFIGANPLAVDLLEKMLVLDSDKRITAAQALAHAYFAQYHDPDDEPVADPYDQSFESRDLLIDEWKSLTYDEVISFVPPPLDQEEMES
Glycogen synthase kinase-3 beta, sequence (Q9WV60 whole entry): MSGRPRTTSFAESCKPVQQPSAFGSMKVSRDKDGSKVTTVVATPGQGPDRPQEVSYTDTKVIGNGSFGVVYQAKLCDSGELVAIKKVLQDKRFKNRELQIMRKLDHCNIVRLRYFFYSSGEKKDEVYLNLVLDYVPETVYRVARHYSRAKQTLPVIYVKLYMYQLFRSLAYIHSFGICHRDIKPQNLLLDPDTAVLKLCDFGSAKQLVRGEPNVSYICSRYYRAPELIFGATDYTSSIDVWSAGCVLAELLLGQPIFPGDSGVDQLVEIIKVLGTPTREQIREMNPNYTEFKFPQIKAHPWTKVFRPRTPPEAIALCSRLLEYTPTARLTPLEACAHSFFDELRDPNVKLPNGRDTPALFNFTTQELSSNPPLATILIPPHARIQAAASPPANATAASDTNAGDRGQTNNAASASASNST

`c1cnc2nc(-c3ccc4[nH]ncc4c3)c(NC3CCCCC3)n2c1` gave a Ki [1] of 10 nM.
In the case of `O=C(CN(CCCNc1ccnc2cc(Cl)ccc12)C(=O)c1ccncc1)NC1CCCCC1`, the IC50 [2] is reported as 610 nM.
`O=C(CN(CCCNc1ccnc2cc(Cl)ccc12)C(=O)c1cnccn1)NC1CCCCC1` showed an IC50 [2] of 540 nM.
`Cc1cc2c(c(=O)n1C)C(c1ccc(N(C)C)c(Br)c1)C(C#N)=C(N)O2` (stereo not given) showed a GI50 [3] of 330 nM.
With `CC(NCCCNc1ccnc2cc(Cl)ccc12)c1nc(Cc2ccccc2)c(N2CCOCC2)o1` (stereo not given) the “Ratio IC50” value [4] was 21 and the IC50 [5] was 3.8 nM.
`Cc1ccoc1-c1cc(-c2ccc(Br)cc2)[nH]c(=N)c1C#N` gave an IC50 [6] of 70 nM.
For `N#Cc1c(-c2ccc(Cl)c(Cl)c2)cc(-c2ccc(Br)cc2)nc1N`, the IC50 [6] was 120 nM.
In the case of `COC(c1ccc(C)cc1)c1cnn2c(-c3ccccc3)cc3c(Cl)cccc3c12` (stereo not given), the IC50 [7] is reported as 13400 nM, the IC50 [8] is reported as 2190 nM and the IC50 [9] is reported as 1000 nM. The IC50 [10] was 4500 nM.
In the case of `COc1ccc(NN2[C@@H]([C@H](O)c3cc(Br)c(OC)c(OC)c3)C=C[C@H]3C(=O)N(C4CCCCC4)C(=O)[C@H]32)cc1`, the IC50 [11] is reported as 66000 nM.
`O=C1NC(=O)[C@@H]2C=C[C@H]([C@H](O)C3CC=CCC3)N(Nc3ccc(Cl)cc3Cl)[C@H]12` (stereo not given in full) showed an IC50 [11] of 68000 nM.
`O=C(NCc1ccccc1)C1C(=O)Nc2sc3c(c2C(=O)N1Cc1ccc(Cl)cc1)CCCC3` (stereo not given) gave a Ki [12] of 40000 nM.
`O=C(NCc1ccc(Cl)c(Cl)c1)C1C(=O)Nc2sc3c(c2C(=O)N1Cc1ccc(Cl)cc1)CCCC3` (stereo not given) gave a Ki [12] of 45000 nM.
For `Cc1ccc(S(=O)(=O)/N=C(\Nc2ccc(Cl)cc2)NC(C)(C)C)cc1`, the Kd [13] was greater than 100000 nM.
In the case of `O=C1C(O)=C(c2ccccc2)C(c2ccc(Cl)cc2)N1Cc1ccc(Cl)cc1` (stereo not given), the Kd [13] is reported as greater than 200000 nM, the IC50 [14] is reported as 26200 nM and the IC50 [15] is reported as 12200 nM.
In the case of `CC1(C)CC(=O)C2=C(C1)Oc1ccc3ccccc3c1C2c1ccc(O)cc1` (stereo not given), the IC50 [16] is reported as 6.7 µg/mL (≈ 18.1 µM).
`N#CC1=C(N)Oc2ccc3ccccc3c2C1c1ccc([N+](=O)[O-])cc1` (stereo not given) showed an IC50 [16] of 8.9 µg/mL (≈ 25.9 µM).
For `CC1(C(=O)NC2CCCCC2)CCCC(=O)N1CCCCCNc1ccnc2cc(Cl)ccc12` (stereo not given), the IC50 [5] was 96 nM.
In the case of `COC(=O)C1=C(C)N(C)C(=O)N(C(=O)NCCCCNc2ccnc3cc(Cl)ccc23)C1c1ccc(OC)cc1` (stereo not given), the “Ratio IC50” value [4] is reported as 200 and the IC50 [5] is reported as 4 nM.
`CNC(=O)CC1S/C(=N\N=C(/C)c2ccc(Br)cc2)N(C)C1=O` (stereo not given) showed an inhibition at 50 µM [17] of 60%.
`CCOC(=O)c1ccc2c(c1)c1c(c(-c3cccc4ccccc34)[n+]2C)CCO1` gave an IC50 [18] of 75000 nM.
`COc1ccc(C2Nc3ccccc3C3CCCOC32)cc1` (stereo not given) showed an MIC [19] of 6.25 µM (≈ 1.85 µg/mL).
Work on `Cn1c(=O)c2c(c3ccccc31)OC(N)=C(C#N)C2c1cncc(Br)c1` (stereo not given) yielded a GI50 [3] of 13 nM.
`CC1CS(=O)(=O)CCN1/N=C/c1ccc([N+](=O)[O-])o1` (stereo not given) [NIFURTIMOX] gave an inhibition at 50 µM [17] of 100%.
For `CC(=O)O[C@H]1C(=O)[C@@]2(C)[C@H]([C@H](OC(=O)c3ccccc3)[C@]3(O)C[C@H](OC(=O)[C@H](O)[C@@H](NC(=O)c4ccccc4)c4ccccc4)C(C)=C1C3(C)C)[C@]1(OC(C)=O)CO[C@@H]1C[C@@H]2O` [PACLITAXEL], the GI50 ([20]; Homo sapiens, HT-29) was 5.3 nM and the GI50 ([21]; Homo sapiens, PC-3) was 7.2 nM.
For `CC/C(=C(\c1ccccc1)c1ccc(OCCN(C)C)cc1)c1ccccc1` [TAMOXIFEN], the IC50 [16] was 10 µg/mL (≈ 26.9 µM).
Work on `CC[C@@H](C)[C@H](NC(=O)[C@H]1CCCCN1C)C(=O)N(COC(=O)CC(C)C)[C@H](C[C@@H](OC(C)=O)c1nc(C(=O)N[C@@H](Cc2ccc(O)cc2)C[C@H](C)C(=O)O)cs1)C(C)C` [TUBULYSIN A] yielded a GI50 [20] of 0.32 nM and a GI50 [21] of 0.21 nM.
